Data: patent US20230021483A1, “[…] […] METHOD AND CLASSIFICATION OF PHARMACEUTICAL COMPONENTS BY USING TRANSCRIPTOMES” (National Institutes of Biomedical Innovation, Health and …, priority 2016, published 2023)

Tests used:
liver (LV) = assay: Whole organ transcriptome (GeneChip microarray) of liver 6 h after adjuvant administration: sDEGs, hierarchical clustering; format: in vivo, C57BL/6 mice; conditions: liver; on adjuvant group (cluster) in LV: key: G1 (interferon signaling); G2 (metabolism of lipids and lipoproteins); G3 (response to stress); G4 (response to wounding); G5 (phosphate-containing compound metabolic process); G6 (phagosome)
[1] = system: adjuvant-associated biological themes in LV, SP, LN; conditions: LV, ID
Outline: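 Per-mouse whole-organ transcriptomes; genes with eij/ei(c)>2.0 tested for theme enrichment via TargetMine (GO, KEGG, Reactome, others), Fisher's exact test, Holm-Bonferroni correction. Themes shared by all three mice kept at p<0.05, using the smallest p. Score per adjuvant-associated term = Σ−log(p) of matching themes.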

In the case of `Nc1nc2c(ncn2[C@@H]2O[C@@H]3COP(=O)(O)O[C@H]4[C@@H](O)[C@H](n5cnc6c(N)ncnc65)O[C@@H]4COP(=O)(O)O[C@@H]2[C@@H]3O)c(=O)[nH]1` [cGAMP, Cyclic [G(2′,5′)pA(3′,5′)p]], the “adjuvant group (cluster) in LV” value (liver (LV); hierarchical clustering) is reported as “G1”, the “Number of gene probes with statistically significant changes (sDEGs), LV, Down” value (liver (LV); i.d. administration, fold change <0.667, p<0.01, customized PA call=1, 6 h after adjuvant) is reported as 248 and the “Number of gene probes with statistically significant changes (sDEGs), LV, Up” value (liver (LV); i.d. administration, fold change >1.5, p<0.01, customized PA call=1, 6 h after adjuvant) is reported as 841. The “GO annotation: Cytokine-cytokine receptor interaction (Term: cytokine)” value [1] was 5.57, the “GO annotation: Cytokine-cytokine receptor interaction|Endocytosis (Term: cytokine)” value [1] was 24.6 and the “GO annotation: NF-kappa B signaling pathway (Term: NF-kappa B signaling pathway)” value [1] was 4.86. For the same molecule, the “GO annotation: TNF signaling pathway (Term: TNF signaling pathway)” value [1] was 27.6, the “GO annotation: activation of immune response (Term: immune response)” value [1] was 12.6 and the “GO annotation: activation of innate immune response (Term: innate immune response)” value [1] was 16.9. For the same molecule, the “GO annotation: acute inflammatory response (Term: inflammatory response)” value [1] was 0, the “GO annotation: adaptive immune response (Term: adaptive immune response)” value [1] was 0 and the “GO annotation: adaptive immune response based on somatic recombination of immune receptors built from immunoglobulin superfamily domains (Term: adaptive immune response)” value [1] was 3.78. The “GO annotation: apoptotic process (Term: apoptosis)” value [1] was 4.46, the “GO annotation: apoptotic signaling pathway (Term: apoptosis)” value [1] was 0 and the “GO annotation: cell chemotaxis (Term: chemotaxis)” value [1] was 4.4. For the same molecule, the “GO annotation: cell death (Term: cell death)” value [1] was 10.2, the “GO annotation: cell migration (Term: migration)” value [1] was 0 and the “GO annotation: cellular response to cytokine stimulus (Term: cytokine)” value [1] was 32.9. The “GO annotation: cellular response to interferon-alpha (Term: IFN alpha)” value [1] was 6.72, the “GO annotation: cellular response to stress (Term: stress)” value [1] was 0 and the “GO annotation: chemokine production (Term: chemokine)” value [1] was 0. For the same molecule, the “GO annotation: chemokine-mediated signaling pathway (Term: chemokine)” value [1] was 0, the “GO annotation: chemotaxis (Term: chemotaxis)” value [1] was 0 and the “GO annotation: cytokine biosynthetic process (Term: cytokine)” value [1] was 6.84. For the same molecule, the “GO annotation: cytokine metabolic process (Term: cytokine)” value [1] was 8.21, the “GO annotation: cytokine production (Term: cytokine)” value [1] was 17.4 and the “GO annotation: cytokine secretion (Term: cytokine)” value [1] was 0. The “GO annotation: cytokine-mediated signaling pathway (Term: cytokine)” value [1] was 16.4, the “GO annotation: death (Term: cell death)” value [1] was 4.77 and the “GO annotation: defense response (Term: defense response)” value [1] was 62.7. The “GO annotation: defense response to Gram-positive bacterium (Term: defense response)” value [1] was 0, the “GO annotation: defense response to bacterium (Term: defense response)” value [1] was 8.38 and the “GO annotation: defense response to other organism (Term: defense response)” value [1] was 37. The “GO annotation: defense response to protozoan (Term: defense response)” value [1] was 4.37, the “GO annotation: defense response to virus (Term: defense response)” value [1] was 19.8 and the “GO annotation: granulocyte chemotaxis (Term: chemotaxis)” value [1] was 0. The “GO annotation: granulocyte migration (Term: migration)” value [1] was 0, the “GO annotation: immune response (Term: immune response)” value [1] was 42.2 and the “GO annotation: immune response-activating signal transduction (Term: immune response)” value [1] was 14.1. The “GO annotation: immune response-regulating signaling pathway (Term: immune response)” value [1] was 17.6, the “GO annotation: inflammatory response (Term: inflammatory response)” value [1] was 11.5 and the “GO annotation: innate immune response (Term: innate immune response)” value [1] was 31.4. For the same molecule, the “GO annotation: innate immune response-activating signal transduction (Term: innate immune response)” value [1] was 16.2, the “GO annotation: interferon-alpha production (Term: IFN alpha)” value [1] was 3.79 and the “GO annotation: intrinsic apoptotic signaling pathway (Term: apoptosis)” value [1] was 0. For the same molecule, the “GO annotation: leukocyte chemotaxis (Term: chemotaxis)” value [1] was 0, the “GO annotation: leukocyte migration (Term: migration)” value [1] was 0 and the “GO annotation: leukocyte migration involved in inflammatory response (Term: inflammatory response)” value [1] was 0. For the same molecule, the “GO annotation: lymphocyte chemotaxis (Term: chemotaxis)” value [1] was 0, the “GO annotation: lymphocyte migration (Term: migration)” value [1] was 0 and the “GO annotation: myeloid leukocyte migration (Term: migration)” value [1] was 0. For the same molecule, the “GO annotation: negative regulation of apoptotic process (Term: apoptosis)” value [1] was 0, the “GO annotation: negative regulation of cell death (Term: cell death)” value [1] was 0 and the “GO annotation: negative regulation of cytokine production (Term: cytokine)” value [1] was 3.21. For the same molecule, the “GO annotation: negative regulation of defense response (Term: defense response)” value [1] was 0, the “GO annotation: negative regulation of immune response (Term: immune response)” value [1] was 0 and the “GO annotation: negative regulation of innate immune response (Term: innate immune response)” value [1] was 0. For the same molecule, the “GO annotation: negative regulation of programmed cell death (Term: cell death)” value [1] was 0, the “GO annotation: neutrophil chemotaxis (Term: chemotaxis)” value [1] was 0 and the “GO annotation: neutrophil migration (Term: migration)” value [1] was 0. For the same molecule, the “GO annotation: positive regulation of adaptive immune response (Term: adaptive immune response)” value [1] was 0, the “GO annotation: positive regulation of apoptotic process (Term: apoptosis)” value [1] was 0 and the “GO annotation: positive regulation of cell death (Term: cell death)” value [1] was 0. The “GO annotation: positive regulation of cell migration (Term: migration)” value [1] was 0, the “GO annotation: positive regulation of chemokine production (Term: chemokine)” value [1] was 0 and the “GO annotation: positive regulation of chemotaxis (Term: chemotaxis)” value [1] was 0. The “GO annotation: positive regulation of cytokine biosynthetic process (Term: cytokine)” value [1] was 0, the “GO annotation: positive regulation of cytokine production (Term: cytokine)” value [1] was 11.1 and the “GO annotation: positive regulation of defense response (Term: defense response)” value [1] was 24.7. The “GO annotation: positive regulation of immune response (Term: immune response)” value [1] was 15.7, the “GO annotation: positive regulation of inflammatory response (Term: inflammatory response)” value [1] was 0 and the “GO annotation: positive regulation of innate immune response (Term: innate immune response)” value [1] was 17.2. The “GO annotation: positive regulation of interferon-alpha production (Term: IFN alpha)” value [1] was 4.81, the “GO annotation: positive regulation of leukocyte chemotaxis (Term: chemotaxis)” value [1] was 0 and the “GO annotation: positive regulation of leukocyte migration (Term: migration)” value [1] was 0. For the same molecule, the “GO annotation: positive regulation of programmed cell death (Term: cell death)” value [1] was 0, the “GO annotation: positive regulation of response to wounding (Term: wounding)” value [1] was 0 and the “GO annotation: positive regulation of tumor necrosis factor superfamily cytokine (Term: cytokine)” value [1] was 0. For the same molecule, the “GO annotation: production of molecular mediator of immune response (Term: immune response)” value [1] was 0, the “GO annotation: programmed cell death (Term: cell death)” value [1] was 6.49 and the “GO annotation: regulation of adaptive immune response (Term: adaptive immune response)” value [1] was 0. For the same molecule, the “GO annotation: regulation of adaptive immune response based on somatic recombination of immune receptors built from immunoglobulin superfamily domains (Term: adaptive immune response)” value [1] was 0, the “GO annotation: regulation of apoptotic process (Term: apoptosis)” value [1] was 4.63 and the “GO annotation: regulation of apoptotic signaling pathway (Term: apoptosis)” value [1] was 0. For the same molecule, the “GO annotation: regulation of cell death (Term: cell death)” value [1] was 3.82, the “GO annotation: regulation of cell migration (Term: migration)” value [1] was 0 and the “GO annotation: regulation of chemokine production (Term: chemokine)” value [1] was 0. For the same molecule, the “GO annotation: regulation of chemotaxis (Term: chemotaxis)” value [1] was 0, the “GO annotation: regulation of cytokine biosynthetic process (Term: cytokine)” value [1] was 0 and the “GO annotation: regulation of cytokine production (Term: cytokine)” value [1] was 19.1. The “GO annotation: regulation of defense response (Term: defense response)” value [1] was 37.5, the “GO annotation: regulation of defense response to virus (Term: defense response)” value [1] was 0 and the “GO annotation: regulation of defense response to virus by host (Term: defense response)” value [1] was 0. The “GO annotation: regulation of immune response (Term: immune response)” value [1] was 20.7, the “GO annotation: regulation of inflammatory response (Term: inflammatory response)” value [1] was 0 and the “GO annotation: regulation of innate immune response (Term: innate immune response)” value [1] was 24.8. The “GO annotation: regulation of interferon-alpha production (Term: IFN alpha)” value [1] was 4.28, the “GO annotation: regulation of intrinsic apoptotic signaling pathway (Term: apoptosis)” value [1] was 0 and the “GO annotation: regulation of leukocyte chemotaxis (Term: chemotaxis)” value [1] was 0. For the same molecule, the “GO annotation: regulation of leukocyte migration (Term: migration)” value [1] was 0, the “GO annotation: regulation of programmed cell death (Term: cell death)” value [1] was 4.93 and the “GO annotation: regulation of response to stress (Term: stress)” value [1] was 25.3. For the same molecule, the “GO annotation: regulation of response to wounding (Term: wounding)” value [1] was 3.31, the “GO annotation: regulation of tumor necrosis factor superfamily cytokine production (Term: cytokine)” value [1] was 0 and the “GO annotation: response to cytokine (Term: cytokine)” value [1] was 45.9. The “GO annotation: response to interferon-alpha (Term: IFN alpha)” value [1] was 14.8, the “GO annotation: response to stress (Term: stress)” value [1] was 44.6 and the “GO annotation: response to wounding (Term: wounding)” value [1] was 0. For the same molecule, the “GO annotation: taxis (Term: chemotaxis)” value [1] was 0, the “GO annotation: tumor necrosis factor superfamily cytokine production (Term: cytokine)” value [1] was 0 and the “IFN beta: cellular response to interferon-beta” value [1] was 17.6. For the same molecule, the “IFN beta: interferon-beta production” value [1] was 5.22, the “IFN beta: positive regulation of interferon-beta production” value [1] was 9.2 and the “IFN beta: regulation of interferon-beta production” value [1] was 5.76. For the same molecule, the “IFN beta: response to interferon-beta” value [1] was 23.5, the “IFN gamma: cellular response to interferon-gamma” value [1] was 7.44 and the “IFN gamma: interferon-gamma production” value [1] was 0. For the same molecule, the “IFN gamma: regulation of interferon-gamma production” value [1] was 0, the “IFN gamma: response to interferon-gamma” value [1] was 10 and the “interleukin-6: interleukin-6 production” value [1] was 0. For the same molecule, the “interleukin-6: positive regulation of interleukin-6 production” value [1] was 0, the “interleukin-6: regulation of interleukin-6 production” value [1] was 0 and the “interleukin-12: interleukin-12 production” value [1] was 0. For the same molecule, the “interleukin-12: positive regulation of interleukin-12 production” value [1] was 0 and the “interleukin-12: regulation of interleukin-12 production” value [1] was 0.
